Molecules are shown by their SMILES. Activity calls are given as the source filed them.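 The calls were made as follows: active = AC50, the dose giving half-maximal effect, exceeds a fixed cutoff for a compound that rescues yeast growth under heat; inactive = the rest, inconclusive results apart.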 Some results are limits rather than exact numbers.

The test system of the test is S. cerevisiae Burl-1 ts mutant growth, BacTiter-Glo, 38.5C 24 h. Put plainly: growth induction of Burl-1 ts yeast mutant, dose response, counter-screen for SUMOylation pathway inhibitor project, whole organism, S. cerevisiae, luminescence (AID 463199). For orientation: Counterscreens check selectivity or assay interference.

The term AC50 denotes the concentration at which the activity in the assay is half-maximal. Turning to `N[C@@H](Cc1ccc(O)c(I)c1)C(=O)O`, the AC50 was > 42 µM (inactive). As to `C/C=C/C(=O)OCC(=O)Nc1nc2ccc(C)cc2s1`, the AC50 was > 42 µM (inactive). The same measure for `CCN(C(=O)Nc1ccccc1OC)c1c(N)n(Cc2ccccc2)c(=O)[nH]c1=O`: > 42 µM (inactive); for `CCCN1CCN(CCCNC(=O)CCn2nc(-c3ccccc3)ccc2=O)CC1`: > 42 µM (inactive).

Take `c1ccc2c(c1)OCCOCCOc1ccccc1OCCOCCO2`: the AC50 was > 42 µM (inactive). The same measure for `COc1ccc(OCC(O)CN2C(=O)NC(C)(C)C2=O)cc1` (centres undefined): > 42 µM (inactive); for `CCC1CCCCN1C(=O)CSc1nnc(CNC(=O)c2ccco2)o1` (centres undefined): > 42 µM (inactive).

On to `CC1(C(=O)Nc2cccc(-n3cnnn3)c2)Cc2ccccc2C(=O)O1` (centres undefined), for which the AC50 was > 42 µM (inactive). As for `Fc1ccc2c(c1)nnn2C1CCN(Cc2nnnn2C2CCCCC2)CC1`, the AC50 is > 42 µM (inactive). As to `COc1ccccc1CNC(=O)C1CCC(=O)N1C(C)C` (centres undefined), the AC50 was > 42 µM (inactive). The figure for `CCCCn1c2c(c(=O)n(C)c1=O)C(c1ccc(OC)cc1)N1CCCCCC1=N2` (centres undefined) is > 42 µM (inactive). `CN(C)c1ccc2nc3ccc(=[N+](C)C)cc-3sc2c1`: the AC50 is > 42 µM (inactive). The same measure for `CC1CCN(CCCOc2ccc(OCc3ccccc3)cc2)CC1`: > 42 µM (inactive); for `Cn1nc(C(C)(C)C)c([N+](=O)[O-])c1C(=O)Nc1ccccc1`: > 42 µM (inactive). For `Cc1ccc(-c2csc(C3=C(O)CN(NC(=O)c4ccco4)C3=N)n2)cc1`, the AC50 was > 42 µM (inactive).

Regarding `Cc1ccc(N=c2ssnc2Cl)cc1`, the AC50 is > 42 µM (inactive). With `CCCCN(C)C(=O)c1cc2c(Cl)nc3ccccc3c2s1`, the AC50 was > 42 µM (inactive). Consider `Clc1ccc(CN(Cc2ccccc2)C(c2cccs2)c2nnnn2C2CCCC2)cc1` (centres undefined), for which the AC50 is > 42 µM (inactive).

Turning to `COC(=O)c1ccc(/C=N/NC(=O)C(=O)NCC2CCCO2)cc1` (centres undefined), the AC50 was > 42 µM (inactive).

In the case of `c1ccc(-c2cc3cc4c(cc3cn2)OCO4)cc1`, the AC50 was > 42 µM (inactive). The same measure for `Cc1sc(-n2c(C)cc(C=C3C(=O)NC(=O)NC3=O)c2C)c(C#N)c1C`: > 42 µM (inactive); for `CC(C)CCOCc1nc2sc3c(c2c(=O)[nH]1)CCC(C)C3` (centres undefined): > 42 µM (inactive); for `O=C(Nc1ccsc1C(=O)O)c1cccc(C(F)(F)F)c1`: > 42 µM (inactive). The figure for `CCOC(=O)C1=C(C)NC(C)=C(C(=O)OCC)C1C(=O)OC1CCOC1=O` (centres undefined) is > 42 µM (inactive); for `CSc1ccccc1NC(=O)COc1nsnc1N1CCOCC1` it is > 42 µM (inactive); for `CCOc1cc(NC(=O)c2cccs2)c(OCC)cc1NC(=O)CCC(=O)NCCN1CCOCC1` it is > 42 µM (inactive). The figure for `O=C(NCc1nc(-c2ccccc2)no1)c1cccs1` is > 42 µM (inactive). On to `COc1ccc(CCC(=O)NNC(=S)Nc2cccc(C(C)=O)c2)cc1`, for which the AC50 was > 42 µM (inactive). For the molecule `CCCC(=O)N(CCN1CCOCC1)c1nc2ccc(OCC)cc2s1`, the AC50 was > 42 µM (inactive). The same measure for `CCCCCNC(=O)c1ccc2c(=O)n(CC3CCCO3)c(=O)[nH]c2c1` (centres undefined): 7.49 µM. The same measure for `Cc1cc(S(=O)(=O)NCC(C)C)ccc1OCC(=O)N1CCOCC1`: > 42 µM (inactive). As to `CC(=O)NC1CCCN(O)C(=O)/C=C(\C)CCOC(=O)C(NC(C)=O)CCCN(O)C(=O)/C=C(\C)CCOC(=O)C(NC(C)=O)CCCN(O)C(=O)/C=C(\C)CCOC1=O` (centres undefined), the AC50 is > 42 µM (inactive). The figure for `COc1ccc(NC(=O)c2ccc(-c3csc(C)n3)cc2)cc1` is > 42 µM (inactive). The figure for `Cc1cc(C)c2nc(-c3cccnc3)cc(C(=O)Nc3ccc(S(=O)(=O)Nc4onc(C)c4C)cc3)c2c1` is > 42 µM (inactive); for `Cc1ccc(C(C[N+](=O)[O-])c2c(C)[nH]n(-c3ccccc3)c2=O)cc1` (centres undefined) it is 39.7 µM. The same measure for `CC(C)(C)C(=O)Nc1ccc(C(=O)NCc2cccnc2)cc1`: > 42 µM (inactive); for `O=C(CSc1nnc(CNC(=O)c2ccccc2F)o1)NCCc1ccccc1`: > 42 µM (inactive).

For the molecule `CCOC(=O)c1cnc2ccc(Cl)cc2c1N1CCN(C)CC1`, the AC50 is > 42 µM (inactive). Turning to `c1ccc(OCCCc2nc(-c3cccnc3)no2)cc1`, the AC50 was > 42 µM (inactive). Consider `Cc1ccc(SCCC(=O)Nc2ccc(OCc3ccccc3)cc2)cc1`, for which the AC50 is > 42 µM (inactive). As for `CCCCCCC(C)n1[nH]c(=O)c2c(C)cc(=O)[nH]c21` (centres undefined), the AC50 was > 42 µM (inactive).

Take `N#CC(C#N)=CN=c1ccn(Cc2ccc(Cl)cc2Cl)cc1`: the AC50 is > 42 µM (inactive).

For the molecule `Cc1cccc2nc3ccccc3cc12`, the AC50 is > 42 µM (inactive). The same measure for `COc1ccccc1CNc1ncnc2nc[nH]c12`: > 42 µM (inactive); for `NS(=O)(=O)c1ccc(CCNC(=O)CN2CCN(c3ccc(F)cc3)CC2)cc1`: > 42 µM (inactive). The figure for `CCOCCn1c(-c2ccc(OC)cc2)nc2ccccc21` is > 42 µM (inactive); for `Cc1[nH]oc(=O)c1N=Nc1c(Cl)cccc1Cl` it is > 42 µM (inactive). As for `Clc1ccc(CSc2nnc(CN3CCOCC3)n2-c2ccccc2)cc1Cl`, the AC50 was > 42 µM (inactive). The figure for `O=C(CCCC(=O)N(CC(=O)NC1CCCC1)c1cccc(F)c1)Nc1ccccn1` is > 42 µM (inactive); for `C/C(CC(=O)Nc1cccc(Cl)c1Cl)=N\NC(=O)c1ccccc1C` it is > 42 µM (inactive). The same measure for `CC1CCCN(C(=O)Cc2ccc(F)cc2)C1` (centres undefined): > 42 µM (inactive); for `CCOc1cc(C(=S)N2CCOCC2)ccc1OC(=O)c1ccc(C)cc1`: > 42 µM (inactive); for `COc1cc(CN2CCCC(CO)(Cc3cccc(Cl)c3)C2)cc2c1OCO2` (centres undefined): > 42 µM (inactive). The same measure for `N#CCSc1nc2c(c(C3CC=CCC3)c1C#N)CCC2` (centres undefined): > 42 µM (inactive); for `COc1ccc(S(=O)(=O)N2CCc3cc4c(cc3C2C)OCCCO4)cc1` (centres undefined): > 42 µM (inactive). `Cc1nc2c(-c3ccc(F)cc3)cnn2c2c1CCC2`: the AC50 was > 42 µM (inactive). The figure for `Cc1ccc(N/C=C(\C#N)c2ccc(OCCCF)cc2)cc1` is > 42 µM (inactive); for `CCn1c(-c2ccccc2)c(C(=O)CC#N)c2ccccc21` it is > 42 µM (inactive).

In the case of `CS(=O)(=O)N1CCCC(C(=O)Nc2ccc(F)cc2F)C1` (centres undefined), the AC50 was > 42 µM (inactive). The same measure for `C=CC(=O)NC1CC2CCC1(C)C2(C)C` (centres undefined): > 42 µM (inactive); for `O=C(CN1CCN(c2ccccc2F)CC1)Nc1nnc(C(F)(F)F)s1`: > 42 µM (inactive); for `CC(NC(=O)c1ccc(Cl)cc1)C(=O)N1CCCCC1` (centres undefined): > 42 µM (inactive). The figure for `CCn1nc(C(=O)OCc2cccc(S(=O)(=O)N(C)C)c2)c2ccccc2c1=O` is > 42 µM (inactive); for `CCOC(=O)CS(=O)(=O)c1ccc2ccccc2c1` it is > 42 µM (inactive). Turning to `CCOc1ccc(NC(=O)Nc2ccc3nsnc3c2)cc1`, the AC50 was > 42 µM (inactive).

Turning to `COc1ccccc1CNC(=O)C(C)Sc1ccc(C)cc1` (centres undefined), the AC50 was > 42 µM (inactive). Consider `COc1cccc(C(=O)NCc2ccc(-c3nc4ccccc4s3)cc2)c1`, for which the AC50 is > 42 µM (inactive). The same measure for `Cc1ccc(C(C(=O)NCC2CCCO2)N(Cc2ccccc2F)C(=O)Cn2nnc(-c3cccs3)n2)cc1` (centres undefined): > 42 µM (inactive); for `Nc1nc(-c2ccc(Cl)cc2)nc(-c2ccc(Cl)cc2)n1`: > 42 µM (inactive); for `Cc1ccc(-c2ccc(/C=N/n3cnnc3)o2)cc1`: > 42 µM (inactive). The same measure for `COc1ccc(-c2nc3c(c(SCC(=O)N4CCOCC4)n2)Cc2c(CO)cnc(C)c2O3)cc1`: > 42 µM (inactive); for `COc1cccc(NC(=O)CN(C)C(=O)c2ccccc2OCc2c(C)noc2C)c1`: > 42 µM (inactive). The same measure for `O=[N+]([O-])c1nn(-c2ccc(Cl)cc2)n(O)c1=NCc1ccccc1Cl`: > 42 µM (inactive); for `Cc1ccc(CN(C)C(=O)c2ccc3c(c2)NC(=O)CS3)o1`: > 42 µM (inactive); for `Cc1ccc(C(C(=O)NC2CCCCC2)N(CCC(C)C)C(=O)CNC(=O)c2ccco2)o1` (centres undefined): > 42 µM (inactive). For the molecule `CCCCCCCN1C(Nc2ccccc2)=NC[C@@H]1CC(C)C`, the AC50 is > 21 µM (inactive). The same measure for `COc1ccc(C2=NOC(Cn3nc(C(=O)NCc4cccs4)cc3-c3ccccc3)C2)cc1` (centres undefined): > 42 µM (inactive); for `N#CC(C#N)=C1C=CC=CN1/C(=C\c1ccccc1Cl)C(=O)c1ccccc1`: > 42 µM (inactive). The same measure for `COC(=O)c1cc(Cl)c(NC(=O)C(C)C)cc1OC`: > 42 µM (inactive); for `CC(C)CC(=O)Nc1ccc(C(=O)CN2C(=O)NC3(CCOc4ccccc43)C2=O)cc1` (centres undefined): > 42 µM (inactive). For the molecule `CCOc1ccccc1N(CC(=O)Nc1ccccc1C(=O)N1CCCC1)S(C)(=O)=O`, the AC50 was > 42 µM (inactive). The figure for `O=C(COc1ccc(-n2cnnn2)cc1)NCCc1ccc(F)cc1` is > 42 µM (inactive); for `COc1ccc(/C=C(\C#N)C(=O)NCCCn2ccnc2)cc1` it is > 42 µM (inactive); for `CCCCN(C(=O)C1=COCCO1)c1c(N)n(Cc2ccccc2)c(=O)[nH]c1=O` it is > 42 µM (inactive). The same measure for `CN(C)C(=O)c1coc2nc3ccccc3nc12`: > 42 µM (inactive). The figure for `O=C(CCSc1nnc(-c2ccncc2)o1)Nc1ccc(Cl)cc1` is > 42 µM (inactive); for `C=CCn1c(=N)c(C(=O)NCCCOC)cc2c(=O)n3ccccc3nc21` it is > 42 µM (inactive); for `COc1ccc(NC(=S)Nc2ccccc2OC)c(OC)c1` it is > 42 µM (inactive).

Take `CCOC(=O)N1CCN(C(=O)c2ccccc2-c2ccccc2)CC1`: the AC50 is > 42 µM (inactive).

Values taken from PubChem BioAssay AID463199 (Broad Institute, 2010).
